Measurements taken from patent publication US6160008A, “Pharmaceutical compositions comprising S-alkylisothiouronium derivatives” (priority 1996, dated 2000).
“Also recorded” adds a separate entry of the source.

What was measured:
[1] = system: mice exposed to an oxygen pressure of 3 atm; assay: Survival under oxygen pressure of 3 atm, mice (Table 15); assay type: in vivo, F1 (CBAx57B1); settings: mice, 3 atm, 5 hours
Procedure: Animals were exposed to oxygen under increased pressure in a hyperbaric chamber <<Mana-2≤≤ for treatment of infants above 1 year, which was adjusted for the experiments on animals. The hyperbaric chamber design permitted to create excessive pressure up to 3 atm and to observe animal behavior from outside.
The experiments were performed on males of F1 (CBAx57B1) mice line and on males of Wistar rat line. Animals were placed in the hyperbaric chamber in plastic boxes and the atmospheric air was replaced by oxygen. The period of compression-decompression was 10 minutes. The exposure of the animals to an oxygen pressure of 3 atm during a period of 2 hours caused only some increase in their motion activity. Further staying of rats and mice in those conditions led to a decrease in the motion activity, to asphyxia with short periods of excitement and cramps. The death of some animals was registered after 2.5-3 hours, 50% after 4 hours, and 75% of mice and 100% of rats were dead after 5 hours.
When the influence of Difetur and Etyron was studied, the animals were exposed to an oxygen pressure of 3 atm during 5 hours if not otherwise specified. Preparations were injected 5-10 minutes before the session.

[2] = system: increased oxygen pressure; settings: cited from earlier work
α1-adrenoreceptors = settings: cited from earlier work
arterial blood pressure = assay: Influence of single intravenous injection on arterial blood pressure, heart rate and respiratory rate in anesthetized cats (Table 1, FIGS. 1-10); assay type: in vivo; settings: 5 mg/kg i.v.; for Hypertensive activity (increase of SAP): given as "> SAP by"
Procedure: Experiments were performed on 52 anesthetized (intraperitoneally with 45 mg/kg of sodium pentobarbital) cats of both genders with body mass of 2.8-4.2 kg. Arterial pressure was measured by a mercury pressure gauge; measurements were also performed by ECG. Simultaneously, the respiratory frequency was registered. The hypertensive effect was determined as percent increase relative to the initial level of systolic arterial pressure (SAP). The duration of observation was 1-3 hours; the heart rate (HR) was calculated on the basis of ECG.

[3] = system: acute arterial hypotension, caused by the hexamethonium administration; assay: Acute arterial hypotension caused by hexamethonium (Table 5); assay type: in vivo, cats
Procedure: The influence of S-ethylisothiouronium diethylphosphate on the background of arterial hypotension caused by a known ganglion blocker-hexamethonium has been studied in cats. Hexamethonium was injected intra- venously at a dose of 10 mg/kg. Vagus and schiatic nerve stimulation was carried out by electrical pulsator with the above-threshold rectangular pulse current having a duration of 1 msec, irritation time of 10 sec, and frequency of 20 pulses/sec (peripheral section of the vagus nerve), and frequency of 300 pulses/sec (central end of the schiatic nerve).

[4] = system: acute arterial hypotension, caused by prazosin; assay: Acute arterial hypotension caused by prazosin (Table 3); assay type: in vivo, cats; settings: prazosin alone 1 mg/kg i.v.
Procedure: It was of interest to study the influence of S-ethylisothiouronium diethylphosphate the in case of hypotension caused by the injection of a known α1-adreno blocker, namely prazosin. Prazosin was injected singly intravenously at a dose of 1 mg/kg.

[5] = listed as S-ethylisothiuronium methylphosphate
[6] = listed as S-isobutylisothiuronium isobutylphosphate
[7] = listed as S-isopropylisothiuronium isopropylphosphite
[8] = listed as S-isopropylisothiuronium metaphosphate
[9] = listed as S-methylisothiuronium dimethylphosphate
[10] = hexamethonium alone 10 mg/kg i.v., 2nd min

Compound: Br.CCSC(=N)N [Etyron, S-ethylisothiouronium bromide, reference compound]
- Number of survived animals ([1]; 10 mg/kg): 70%
- Number of survived animals ([1]; 20 mg/kg): 50%
- Protective activity in words [2]: protective activity under increased oxygen pressure

Compound: CNCC(O)c1cccc(O)c1.Cl (centres unmarked) [Mezaton, 1-(m-hydroxyphenyl)-2-methylaminoethanol hydrochloride]
- Pharmacological action in words (α1-adrenoreceptors; in vivo, hydrochloride): selectively stimulates α1-adrenoreceptors; also recorded: practically does not have cardiostimulating effect
- Duration of anti-hypotensive effect (α1-adrenoreceptors; single intravascular injection): approximately 20 minutes

Compound: CCCCSC(=N)N [S-butylisothiouronium dibutylphosphate, S-butylisothiouronium di-butylphosphate]
- Duration of effect (arterial blood pressure): 1 h
- Hypertensive activity, % (increase relative to the initial level of SAP) (arterial blood pressure): 5.6%
- Hypertensive effect in words (arterial blood pressure): slightly increases arterial blood pressure
- RR (influence on respiratory rate) (arterial blood pressure): No influence
- Time to achieve maximum effect (arterial blood pressure): 30 min
- Hypertensive activity (increase of SAP) (arterial blood pressure): 7 mm Hg
- Duration of effect (arterial blood pressure; listed as S-butylisothiuronium dibutylphosphate): up to 1 hour

Compound: CCSC(=N)N [S-ethylisothiouronium metaphosphate]
- Duration of effect (arterial blood pressure): 1.5 h
- Hypertensive activity, % (increase relative to the initial level of SAP) (arterial blood pressure): 15%
- RR (influence on respiratory rate) (arterial blood pressure): does not influence RR
- Time to achieve maximum effect (arterial blood pressure): 2 min
- Hypertensive activity (increase of SAP) (arterial blood pressure): 25 mm Hg
- Hypertensive activity (increase of SAP) (arterial blood pressure; [5]): 25 mm Hg
- Duration of effect (arterial blood pressure; [5]): up to 1 hour
- Hypertensive activity, % (increase relative to the initial level of SAP) (arterial blood pressure; [5]): 14.8%
- Influence on HR (arterial blood pressure; [5]): Bradycardia
- RR (influence on respiratory rate) (arterial blood pressure; [5]): No influence

Compound: CC(C)CSC(=N)N [S-isobutylisothiouronium isobutylphosphite]
- Duration of effect (arterial blood pressure): about 2 hour
- Hypertensive activity, % (increase relative to the initial level of SAP) (arterial blood pressure): 14.8%
- Hypertensive effect in words (arterial blood pressure): moderate hypertensive effect
- Influence on HR (arterial blood pressure): increasing HR
- RR (influence on respiratory rate) (arterial blood pressure): increasing HR and RR
- Time to achieve maximum effect (arterial blood pressure): 2 min
- Hypertensive activity (increase of SAP) (arterial blood pressure): 22.6 mm Hg
- Duration of effect (arterial blood pressure; [6]): 2 h
- RR (influence on respiratory rate) (arterial blood pressure; [6]): Increases

Compound: CC(C)SC(=N)N [S-isopropylisothiouronium isopropylphosphite]
- Duration of effect (arterial blood pressure): at least 2 hour
- Hypertensive activity, % (increase relative to the initial level of SAP) (arterial blood pressure): ~30%
- Hypertensive effect in words (arterial blood pressure): one of the most active substances
- Influence on HR (arterial blood pressure): Transient bradycardia
- RR (influence on respiratory rate) (arterial blood pressure): does not influence RR
- Time to achieve maximum effect (arterial blood pressure): second minute
- Hypertensive activity (increase of SAP) (arterial blood pressure; [7]): 40 mm Hg
- Duration of effect (arterial blood pressure; [7]): 2 h
- Hypertensive activity, % (increase relative to the initial level of SAP) (arterial blood pressure; [7]): 28.8%
- Influence on HR (arterial blood pressure; [7]): Bradycardia
- RR (influence on respiratory rate) (arterial blood pressure; [7]): No influence
- Time to achieve maximum effect (arterial blood pressure; [7]): 2 min

Compound: CC(C)SC(=N)N [S-isopropylisothiouronium metaphosphate]
- Duration of effect (arterial blood pressure): ≥ 2 h
- Hypertensive effect in words (arterial blood pressure): slowly increases SAP
- RR (influence on respiratory rate) (arterial blood pressure): does not influence RR
- Time to achieve maximum effect (arterial blood pressure): 15 min
- Hypertensive activity (increase of SAP) (arterial blood pressure; [8]): 27 mm Hg
- Duration of effect (arterial blood pressure; [8]): 2 h
- Hypertensive activity, % (increase relative to the initial level of SAP) (arterial blood pressure; [8]): 20.3%
- Influence on HR (arterial blood pressure; [8]): Bradycardia
- RR (influence on respiratory rate) (arterial blood pressure; [8]): Increases
- Time to achieve maximum effect (arterial blood pressure; [8]): 15 min

Compound: CSC(=N)N [S-methylisothiouronium dimethylphosphate]
- Duration of effect (arterial blood pressure): 1.5 h
- Hypertensive activity, % (increase relative to the initial level of SAP) (arterial blood pressure): ~30%
- Hypertensive activity (increase of SAP) (arterial blood pressure; [9]): 27.5 mm Hg
- Duration of effect (arterial blood pressure; [9]): 1.5 h
- Hypertensive activity, % (increase relative to the initial level of SAP) (arterial blood pressure; [9]): 20.8%

Compound: C[N+](C)(C)CCCCCC[N+](C)(C)C [hexamethonium, reference compound]
- AP after hexonium injection [3, 10]: 91.0 ± 10.0 mm Hg
- HF after hexonium injection [3, 10]: 137.6 ± 13.4 per min.
- AP decrease ([3]; hexamethonium alone, 2 minutes): 46%

Compound: COc1cc2nc(N3CCN(C(=O)c4ccco4)CC3)nc(N)c2cc1OC [prazosin, reference compound]
- AP after prazosin ([4]; 5th min): 106.3 ± 2.4 mm Hg
- HF after prazosin ([4]; 5th min): 156.8 ± 9.0 per min.
- Respiratory contraction frequency after prazosin ([4]; 5th min): 13.6 ± 2.9 min⁻¹
- AP decrease ([4]; 5th minute): 51 mm Hg
